Results from US8389557B2, “Triazole derivatives useful as Axl inhibitors” (Rigel Pharmaceuticals, Inc., priority 2005, dated 2013).
pIC50: −log10 of the molar value.

Target: T1, Axl (Homo sapiens, UniProt P30530)
T1 construct: endogenous in cells; host or cells: HeLa cells
T1 sequence (P30530 26-894): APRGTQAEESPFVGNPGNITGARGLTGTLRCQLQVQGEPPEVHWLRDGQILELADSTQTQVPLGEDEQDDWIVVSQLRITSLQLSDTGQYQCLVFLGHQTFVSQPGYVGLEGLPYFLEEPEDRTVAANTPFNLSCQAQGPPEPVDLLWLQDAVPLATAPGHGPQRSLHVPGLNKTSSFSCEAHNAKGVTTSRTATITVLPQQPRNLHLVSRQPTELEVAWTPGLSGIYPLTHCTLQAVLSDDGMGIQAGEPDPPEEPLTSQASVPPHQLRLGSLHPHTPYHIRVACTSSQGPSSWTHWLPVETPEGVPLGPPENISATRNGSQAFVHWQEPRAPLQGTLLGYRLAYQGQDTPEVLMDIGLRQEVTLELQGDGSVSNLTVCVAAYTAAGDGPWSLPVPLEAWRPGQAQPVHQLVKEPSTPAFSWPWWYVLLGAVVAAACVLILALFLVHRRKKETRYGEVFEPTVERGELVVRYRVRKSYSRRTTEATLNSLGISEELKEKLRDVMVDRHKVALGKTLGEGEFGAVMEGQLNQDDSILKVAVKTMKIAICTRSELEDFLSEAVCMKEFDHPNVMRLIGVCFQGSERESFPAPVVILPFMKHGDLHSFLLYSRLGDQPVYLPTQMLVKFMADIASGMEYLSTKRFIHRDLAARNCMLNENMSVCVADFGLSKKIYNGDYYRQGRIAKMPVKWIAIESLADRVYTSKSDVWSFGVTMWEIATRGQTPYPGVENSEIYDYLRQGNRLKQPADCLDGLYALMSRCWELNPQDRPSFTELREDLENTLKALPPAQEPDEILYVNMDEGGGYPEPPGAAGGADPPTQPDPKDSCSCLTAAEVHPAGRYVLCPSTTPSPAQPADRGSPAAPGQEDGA
Assay: Phospho-Akt in-cell Western assay (inhibition of Axl activity)
Assay type: cell-based
Procedure: The compounds of the invention were tested in the following assay for their ability to inhibit Axl activity.
Phospho-Akt in-Cell Western Assay
• Cell culture plate: 96 well assay plate (Corning 3610), white, clear bottom, tissue-culture treated. • Cells: Hela cells. • Starvation medium: For Axl stimulation: 0.5% FCS (fetal calf serum) in DMEM, plus Axl/Fc (extracellular domain of AXL fused to immunoglobulin Fc region) (R&D, 154-AL) 500 ng/mL. • For EGF (epidermal growth factor) stimulation: 0.5% FCS in DMEM (Dulbecco's modified Eagles medium). • Poly-L-Lysine 0.01% solution (the working solution): 10 μg/ml, dilute In PBS (phosphate buffered saline). • Axl antibody cross-linking: • 1st: Mouse anti-Axl (R&D, MAB154). • 2nd: Biotin-SP-conjugated AffiniPure goat anti-mouse IgG (H+L) (Jackson ImmunoResearch #115-065-003). • Fixing buffer: 4% formaldehyde in PBS. • Wash buffer: 0.1% TritonX-100 in PBS. • Quenching buffer: 3% H2O2, 0.1% Azide in wash buffer, Azide and hydrogen peroxide (H2O2) are added fresh. • Blocking buffer: 5% BSA in TBST (tris buffered saline plus 0.1% Tween 20). • Primary antibody: Rabbit anti-human Phospho-Akt antibody (Cell Signaling 9271): 1×250 diluted in blocking buffer. • Secondary antibody: HRP (horse radish peroxidase)-conjugated Goat anti-Rabbit secondary, stock solution: Jackson ImmunoResearch (Goat anti-Rabbit HRP, #111-035-144) 1:1 diluted in glycerol, store at −20° C. The working solution: 1×2000 dilution of stock in blocking buffer. • Chemiluminescent working solution (Pierce, 37030): SuperSignal ELISA (enzyme linked immunosorbant assay) Pico Chemiluminescent substrate. • Crystal Violet solution: Stock: 2.5% Crystal violet in methanol, filtered and kept at ambient temperature. The working solution: dilute the stock 1:20 with PBS immediately before use. • 10% SDS: working solution: 5% SDS (sodium dodecylsulfate), diluted in PBS Methods: Day 1:
A 96 well TC (tissue culture treated) plate was coated with 10 μg/mL poly-L-Lysine at 37° C. for 30 min, washed twice with PBS, and air-dried for 5 minutes before cells were added. Hela cells were seeded at 10,000 cells/well and the cells were starved in 100 μL starvation medium containing Axl/Fc for 24 hrs.
The cells were pre-treated with test compounds by adding 100 μL of 2× test compound to the starvation medium on the cells. The cells were incubated at 37° C. for 1 hr before stimulation.
The cells were stimulated by Axl-antibody cross-linking as follows: A 5×1st/2nd Axl antibody mixture was made (37.5 μg/mL 1st/100 μg/mL 2nd) in starvation medium and nutated at 4° C. with thorough mixing for 1-2 hours for clustering. The resulting mix was warmed to 37° C. 50 μL of 5× Axl 1st/2nd of antibody cluster was added to the cells and the cells were incubated at 37° C. for 5 min.
After 5 minutes stimulation, the plate was flicked to remove medium and the plate was tapped onto paper towels. Formaldehyde (4.0% in PBS, 100 μL) was added to fix the cells and the cells were incubated at ambient temperature for 20 min without shaking.
The cells were washed with a plate washer buffer to remove the formaldehyde solution. The plate was flicked to removed excess wash buffer and tapped onto paper towels. Quenching buffer (100 μL) was added to each well and the cells were incubated at ambient temperature for 20 minutes without shaking.
The cells were washed with a plate washer buffer to remove the quenching buffer. Blocking buffer (100 μL) was added and the cells were incubated at ambient temperature for at least an hour with gentle shaking.
The cells were washed with a plate washer buffer and diluted primary antibody (50 μL) was added to each well (blocking buffer was added to the negative control wells instead). The plates were incubated overnight at 4° C. with gentle shaking.
The wash buffer was removed, diluted secondary antibody (100 μL) was added, and the cells were incubated at ambient temperature for 1 hour with gentle shaking. […]

[1] = Table 4, Hela cells, Axl antibody cross-linking stimulation, phospho-Akt chemiluminescence
[2] = inhibition of Axl activity, Table 1
[3] = Table 3, Hela cells, Axl antibody cross-linking stimulation, phospho-Akt chemiluminescence
[4] = inhibition of Axl activity, phospho-Akt in-cell Western assay, Table 1

SMILES	pIC50 [2]	further results
CC(C)Oc1ccc(Nc2nc(N)nn2C(=O)c2ccc3c(c2)NC(=O)C(C)(C)O3)cc1 [compound 66, 3-amino-1-(2,2-dimethyl-2H-benzo[b][1,4]oxazin-3(4H)-on-6-yl)carbonyl-5-(4-(iso-propoxy)phenyl)amino-1H-1,2,4-triazole]		pIC50 [1]: 5.00 to 6.00
Nc1nc(Nc2ccc(N3CCOCC3)cc2)nn1C(=O)c1cccc(O)c1 [compound 67, 5-amino-1-(3-(hydroxy)phenyl)carbonyl-3-(4-(morpholin-4-yl)phenylamino)-1H-1,2,4-triazole]	5.00 to 6.00	
CC1(C)Oc2ccc(C(=O)n3nc(Nc4ccc(N5CCOCC5)cc4)nc3N)cc2NC1=O [compound 68, 5-amino-1-(2,2-dimethyl-2H-benzo[b][1,4]oxazin-3(4H)-on-6-yl)carbonyl-3-(4-(morpholin-4-yl)phenylamino)-1H-1,2,4-triazole]		pIC50 [3]: 5.00 to 6.00
CC1(C)Oc2ccc(C(=O)n3nc(N)nc3Nc3ccc(N4CCOCC4)cc3)cc2NC1=O [compound 69, 3-amino-1-(2,2-dimethyl-2H-benzo[b][1,4]oxazin-3(4H)-on-6-yl)carbonyl-5-(4-(morpholin-4-yl)phenylamino)-1H-1,2,4-triazole]		pIC50 [1]: 5.00 to 6.00
Nc1nc(Nc2ccc(N3CCOCC3)cc2)nn1C(=O)c1ccc(S(N)(=O)=O)cc1 [compound 70, 5-amino-1-(4-(aminosulfonyl)phenyl)carbonyl-3-(4-(morpholin-4-yl)phenylamino)-1H-1,2,4-triazole]	< 4.70	
CC(C)Oc1ccc(Nc2nc(N)n(C(=O)c3cccc([N+](=O)[O-])c3)n2)cc1 [compound 71, 5-amino-3-[4-(iso-propoxy)phenylamino]-1-(3-(nitro)phenyl)carbonyl-1H-1,2,4-triazole]	5.00 to 6.00	
Nc1nc(Nc2ccc(N3CCOCC3)cc2)nn1C(=O)c1cccc([N+](=O)[O-])c1 [compound 72, 5-amino-3-(4-(morpholin-4-yl)phenylamino)-1-(3-(nitro)phenyl)carbonyl-1H-1,2,4-triazole]	5.00 to 6.00	
CC(C)Oc1ccc(Nc2nc(N)n(C(=O)c3cccc(O)c3)n2)cc1 [compound 73, 5-amino-1-(3-(hydroxy)phenyl)carbonyl-3-[4-(iso-propoxy)phenylamino]-1H-1,2,4-triazole]	5.00 to 6.00	
Nc1nc(Nc2ccc(N3CCOCC3)cc2)nn1C(=O)c1cccc(Cl)c1 [compound 74, 5-amino-1-(3-(chloro)phenyl)carbonyl-3-(4-(morpholin-4-yl)phenylamino)-1H-1,2,4-triazole]	5.00 to 6.00	
Nc1nc(Nc2ccc(N3CCOCC3)cc2)n(C(=O)c2cccc(Cl)c2)n1 [compound 75, 3-amino-1-(3-(chloro)phenyl)carbonyl-5-(4-(morpholin-4-yl)phenylamino)-1H-1,2,4-triazole]		pIC50 (Table 2, Hela cells, Axl antibody cross-linking stimulation, phospho-Akt chemiluminescence): < 4.70
CC(C)Oc1ccc(Nc2nc(N)n(C(=O)c3cccc(Cl)c3)n2)cc1 [compound 76, 5-amino-1-(3-(chloro)phenyl)carbonyl-3-[4-(iso-propoxy)phenylamino]-1H-1,2,4-triazole]	< 4.70	
CC(C)Oc1ccc(Nc2nc(N)n(C(=O)c3ccc(OCCN4CCCCC4)cc3)n2)cc1 [compound 77, 5-amino-3-[4-(iso-propoxy)phenylamino]-1-[4-[2-(piperidin-1-yl)ethoxy]phenyl)carbonyl-1H-1,2,4-triazole]	5.00 to 6.00	
CC1(C)Oc2ccc(C(=O)n3nc(Nc4ccc(OCCN5CCCCC5)cc4)nc3N)cc2NC1=O [compound 78, 5-amino-1-(2,2-dimethyl-2H-benzo[b][1,4]oxazin-3(4H)-on-6-yl)carbonyl-3-[4-[2-(piperidin-1-yl)ethoxy]phenylamino]-1H-1,2,4-triazole]		pIC50 [3]: > 6.00
COC(=O)c1cccc(C(=O)n2nc(Nc3ccc(OCCN4CCCCC4)cc3)nc2N)c1 [compound 79, 5-amino-1-(3-(methoxycarbonyl)phenyl)carbonyl-3-[4-[2-(piperidin-1-yl)ethoxy]phenylamino]-1H-1,2,4-triazole]	5.00 to 6.00	
COc1cccc(C(=O)n2nc(Nc3ccc(OCCN4CCCCC4)cc3)nc2N)c1 [compound 80, 5-amino-1-(3-(methoxy)phenyl)carbonyl-3-[4-[2-(piperidin-1-yl)ethoxy]phenylamino]-1H-1,2,4-triazole]	> 6.00	
COc1cccc(C(=O)n2nc(Nc3ccc(N4CCOCC4)cc3)nc2N)c1 [compound 81, 5-amino-1-(3-(methoxy)phenyl)carbonyl-3-(4-(morpholin-4-yl)phenylamino)-1H-1,2,4-triazole]	5.00 to 6.00	
CN(C)CCOc1ccc(Nc2nc(N)n(C(=O)c3ccc(OC(C)(C)C)cc3)n2)cc1 [compound 83, 5-amino-3-[4-[2-(dimethylamino)ethoxy]phenylamino]-1-(4-(tert-butoxy)phenyl)carbonyl-1H-1,2,4-triazole]	> 6.00	
CC(C)Oc1ccc(C(=O)n2nc(Nc3ccc(OCCN(C)C)cc3)nc2N)cc1 [compound 85, 5-amino-3-[4-[2-(dimethylamino)ethoxy]phenylamino]-1-(4-(iso-propoxy)phenyl)carbonyl-1H-1,2,4-triazole]		pIC50 [4]: > 6.00
CN(C)CCOc1ccc(Nc2nc(N)n(C(=O)c3ccc4c(c3)NC(=O)C(C)(C)O4)n2)cc1 [compound 86, 5-amino-3-[4-[2-(dimethylamino)ethoxy]phenylamino]-1-(2,2-dimethyl-2H-benzo[b][1,4]oxazin-3(4H)-on-6-yl)carbonyl-1H-1,2,4-triazole]		pIC50 [3]: > 6.00
CN(C)CCOc1ccc(Nc2nc(N)n(C(=O)c3ccc(N(C)C)cc3)n2)cc1 [compound 87, 5-amino-3-[4-[2-(dimethylamino)ethoxy]phenylamino]-1-(4-(dimethylamino)phenyl)carbonyl-1H-1,2,4-triazole]		pIC50 [4]: > 6.00
Cc1ccc(C(=O)n2nc(Nc3ccc(OCCCN(C)C)cc3)nc2N)cc1 [compound 91, 5-amino-3-[4-[3-(dimethylamino)propoxy]phenylamino]-1-(4-(methyl)phenyl)carbonyl-1H-1,2,4-triazole]		pIC50 [4]: 5.00 to 6.00
